This note sets out measurements from the supplement of paper PMC11424490.

In assay [1] the test system is NCI-H2122. Nature of the assay: combination cScore with adagrasib (Bliss gap around IC50) (%PoC); higher = stronger additive effect. An outline of the steps:
(§1)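 After 24 h in 384-well plates (500 or 800 cells per well), NCI-H2122, NCI-H358 and SW837 cells received concentration matrices and grew for 72 h, except SW837, which grew for 144 h. CellTiter-Glo readings were scaled to vehicle wells and fitted with four-parameter curves. Each score is the averaged Bliss-independence difference (expected minus measured viability) over a region around both monotherapy IC50s, or at top concentrations when no IC50 was reached.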

For assay [2], the system named is SW837. The description is as above. In outline:
as §1

Regarding `Nc1nc(Cl)nc2c1ncn2[C@@H]1O[C@H](CO)[C@@H](O)[C@@H]1F` [Clofarabine] + C=C(F)C(=O)N1CCN(c2nc(OC[C@@H]3CCCN3C)nc3c2CCN(c2cccc4cccc(Cl)c24)C3)C[C@@H]1CC#N [adagrasib], the “combination cScore with adagrasib” value was -3.89 in assay [1] and 1.46 in assay [2].

As for `Cn1c(=O)n(-c2ccc(C(C)(C)C#N)cc2)c2c3cc(-c4cnc5ccccc5c4)ccc3ncc21` [NVP-BEZ235] + C=C(F)C(=O)N1CCN(c2nc(OC[C@@H]3CCCN3C)nc3c2CCN(c2cccc4cccc(Cl)c24)C3)C[C@@H]1CC#N [adagrasib], the “combination cScore with adagrasib” value in assay [1] amounted to 3.55; in assay [2] it was 6.19.

Regarding `Nc1ncn([C@@H]2O[C@H](CO)[C@@H](O)[C@H]2O)c(=O)n1` [Azacitidine] + C=C(F)C(=O)N1CCN(c2nc(OC[C@@H]3CCCN3C)nc3c2CCN(c2cccc4cccc(Cl)c24)C3)C[C@@H]1CC#N [adagrasib], the results for the “combination cScore with adagrasib” value in assay [1] and in assay [2] were -1.39 and 9.12, respectively.

For the compound `CCC1=C[C@@H]2CN(C1)Cc1c([nH]c3ccccc13)[C@@](C(=O)OC)(c1cc3c(cc1OC)N(C)[C@H]1[C@@](O)(C(=O)OC)[C@H](OC(C)=O)[C@]4(CC)C=CCN5CC[C@]31[C@@H]54)C2` [Vinorelbine] + C=C(F)C(=O)N1CCN(c2nc(OC[C@@H]3CCCN3C)nc3c2CCN(c2cccc4cccc(Cl)c24)C3)C[C@@H]1CC#N [adagrasib], the “combination cScore with adagrasib” value in assay [1] was -8.58; in assay [2] it was 3.93.

`CC(C)Nc1cc(-c2c[nH]c(C(=O)N[C@H](CO)c3cccc(Cl)c3)c2)c(Cl)cn1` [Ulixertinib] + C=C(F)C(=O)N1CCN(c2nc(OC[C@@H]3CCCN3C)nc3c2CCN(c2cccc4cccc(Cl)c24)C3)C[C@@H]1CC#N [adagrasib]: the “combination cScore with adagrasib” value in assay [1] was -12.2; in assay [2] it was 2.22.

On to `CC(C)(C)c1nc(-c2cccc(NS(=O)(=O)c3c(F)cccc3F)c2F)c(-c2ccnc(N)n2)s1` [Dabrafenib] + C=C(F)C(=O)N1CCN(c2nc(OC[C@@H]3CCCN3C)nc3c2CCN(c2cccc4cccc(Cl)c24)C3)C[C@@H]1CC#N [adagrasib], for which the “combination cScore with adagrasib” value in assay [1] was -9.32; in assay [2], -0.35.

In the case of `Cc1ccc(NC(=O)c2ccc(CN3CCN(C)CC3)cc2)cc1Nc1nc(-c2cccnc2)cs1` [Masitinib] + C=C(F)C(=O)N1CCN(c2nc(OC[C@@H]3CCCN3C)nc3c2CCN(c2cccc4cccc(Cl)c24)C3)C[C@@H]1CC#N [adagrasib], the “combination cScore with adagrasib” value in assay [1] is 5.2; in assay [2], -2.55.

As to `CN(C)c1ccccc1CN1CCCN(Cc2ccccc2N(C)C)C1c1ccncc1` [GANT61] + C=C(F)C(=O)N1CCN(c2nc(OC[C@@H]3CCCN3C)nc3c2CCN(c2cccc4cccc(Cl)c24)C3)C[C@@H]1CC#N [adagrasib], the “combination cScore with adagrasib” value in assay [1] was 7.28; in assay [2], -0.37.

Turning to `O=C(CCCCCCC(=O)Nc1ccccc1)NO` [Vorinostat] + C=C(F)C(=O)N1CCN(c2nc(OC[C@@H]3CCCN3C)nc3c2CCN(c2cccc4cccc(Cl)c24)C3)C[C@@H]1CC#N [adagrasib], the “combination cScore with adagrasib” value in assay [1] turned out to be 1.67; in assay [2], 14.9.

As to `C[C@@H](Oc1cc(-c2cnn(C3CCNCC3)c2)cnc1N)c1c(Cl)ccc(F)c1Cl` + C=C(F)C(=O)N1CCN(c2nc(OC[C@@H]3CCCN3C)nc3c2CCN(c2cccc4cccc(Cl)c24)C3)C[C@@H]1CC#N [adagrasib], the results for the “combination cScore with adagrasib” value in assay [1] and in assay [2] were 6.58 and 12.7, respectively.

Turning to `C[C@H](CS)C(=O)N1CCC[C@H]1C(=O)O` [Captopril] + C=C(F)C(=O)N1CCN(c2nc(OC[C@@H]3CCCN3C)nc3c2CCN(c2cccc4cccc(Cl)c24)C3)C[C@@H]1CC#N [adagrasib], the figures for the “combination cScore with adagrasib” value in assay [1] and in assay [2] were -0.24 and -3.8, respectively.

With `CNC(=O)c1cc(Oc2ccc(NC(=O)Nc3ccc(Cl)c(C(F)(F)F)c3)c(F)c2)ccn1` [Regorafenib] + C=C(F)C(=O)N1CCN(c2nc(OC[C@@H]3CCCN3C)nc3c2CCN(c2cccc4cccc(Cl)c24)C3)C[C@@H]1CC#N [adagrasib], the “combination cScore with adagrasib” value was -3.41 in assay [1] and -1.71 in assay [2].

Turning to `C[C@]12CC[C@@H]3c4ccc(O)cc4C[C@@H](CCCCCCCCC[S+]([O-])CCCC(F)(F)C(F)(F)F)[C@H]3[C@@H]1CC[C@@H]2O` (some centres undefined) [Fulvestrant] + C=C(F)C(=O)N1CCN(c2nc(OC[C@@H]3CCCN3C)nc3c2CCN(c2cccc4cccc(Cl)c24)C3)C[C@@H]1CC#N [adagrasib], the “combination cScore with adagrasib” value in assay [1] was 3.46; in assay [2], 2.82.

Regarding `Cc1ncc(NC(=O)c2cccc(C(F)(F)F)c2)cc1-c1cnc(OC2CCOCC2)c(N2CCOCC2)c1` [RAF-709] + C=C(F)C(=O)N1CCN(c2nc(OC[C@@H]3CCCN3C)nc3c2CCN(c2cccc4cccc(Cl)c24)C3)C[C@@H]1CC#N [adagrasib], the “combination cScore with adagrasib” value in assay [1] was 7.22; in assay [2], 4.87.

As to `O=C(O)C(=O)O.[NH-][C@@H]1CCCC[C@H]1[NH-].[Pt+2]` [Oxaliplatin] + C=C(F)C(=O)N1CCN(c2nc(OC[C@@H]3CCCN3C)nc3c2CCN(c2cccc4cccc(Cl)c24)C3)C[C@@H]1CC#N [adagrasib], the figures for the “combination cScore with adagrasib” value in assay [1] and in assay [2] were 5.21 and -1.13, respectively.

Turning to `C[C@]1(c2nc3c(C(N)=O)cccc3[nH]2)CCCN1` [Veliparib] + C=C(F)C(=O)N1CCN(c2nc(OC[C@@H]3CCCN3C)nc3c2CCN(c2cccc4cccc(Cl)c24)C3)C[C@@H]1CC#N [adagrasib], the “combination cScore with adagrasib” value is -0.59 in assay [1] and 5.64 in assay [2].

On to `CNCc1ccc(-c2cc(-c3nc(-c4ccc(S(=O)(=O)C(C)C)cc4)cnc3N)on2)cc1` [VE-822/VX-970] + C=C(F)C(=O)N1CCN(c2nc(OC[C@@H]3CCCN3C)nc3c2CCN(c2cccc4cccc(Cl)c24)C3)C[C@@H]1CC#N [adagrasib], for which the “combination cScore with adagrasib” value in assay [1] is 3.08; in assay [2], -9.66.

Consider `CN(C)CCCC(=O)Nc1n[nH]c2nnc(-c3ccccc3)cc12` + C=C(F)C(=O)N1CCN(c2nc(OC[C@@H]3CCCN3C)nc3c2CCN(c2cccc4cccc(Cl)c24)C3)C[C@@H]1CC#N [adagrasib], for which the figures for the “combination cScore with adagrasib” value in assay [1] and in assay [2] were -12.3 and -2.5, respectively.

As for `Cc1ncc([N+](=O)[O-])n1CCOC(=O)NC(Nc1ncccn1)C(Cl)(Cl)Cl` (centres undefined) [Apcin] + C=C(F)C(=O)N1CCN(c2nc(OC[C@@H]3CCCN3C)nc3c2CCN(c2cccc4cccc(Cl)c24)C3)C[C@@H]1CC#N [adagrasib], the “combination cScore with adagrasib” value in assay [1] is 2.71; in assay [2], -0.93.

Regarding `CS(=O)(=O)c1ccc(-c2cnc(N)c(C(=O)Nc3ccccc3)n2)cc1` [VE-821] + C=C(F)C(=O)N1CCN(c2nc(OC[C@@H]3CCCN3C)nc3c2CCN(c2cccc4cccc(Cl)c24)C3)C[C@@H]1CC#N [adagrasib], the “combination cScore with adagrasib” value in assay [1] is 4.3; in assay [2], 12.8.

Consider `COc1cc([C@@H]2c3cc4c(cc3[C@@H](O[C@@H]3O[C@@H]5CO[C@@H](C)O[C@H]5[C@H](O)[C@H]3O)[C@H]3COC(=O)[C@H]23)OCO4)cc(OC)c1O` [Etoposide] + C=C(F)C(=O)N1CCN(c2nc(OC[C@@H]3CCCN3C)nc3c2CCN(c2cccc4cccc(Cl)c24)C3)C[C@@H]1CC#N [adagrasib], for which the “combination cScore with adagrasib” value in assay [1] was 2.33; in assay [2] it was -0.11.

In the case of `c1ccc(-c2nn3c(c2-c2ccnc4cc(OCCN5CCOCC5)ccc24)CCC3)nc1` + C=C(F)C(=O)N1CCN(c2nc(OC[C@@H]3CCCN3C)nc3c2CCN(c2cccc4cccc(Cl)c24)C3)C[C@@H]1CC#N [adagrasib], the results for the “combination cScore with adagrasib” value in assay [1] and in assay [2] were -21.2 and 0.67, respectively.

On to `C[C@H](Cc1ccc(O)c(O)c1)[C@@H](C)Cc1ccc(O)c(O)c1` [Masoprocol] + C=C(F)C(=O)N1CCN(c2nc(OC[C@@H]3CCCN3C)nc3c2CCN(c2cccc4cccc(Cl)c24)C3)C[C@@H]1CC#N [adagrasib], for which the “combination cScore with adagrasib” value was 1.34 in assay [1] and -3.46 in assay [2].

For `Cc1[nH]c2ccccc2c1CCNCc1ccc(/C=C/C(=O)NO)cc1` [Panobinostat] + C=C(F)C(=O)N1CCN(c2nc(OC[C@@H]3CCCN3C)nc3c2CCN(c2cccc4cccc(Cl)c24)C3)C[C@@H]1CC#N [adagrasib], the “combination cScore with adagrasib” value is 2.38 in assay [1] and 5.72 in assay [2].

On to `O=C(O)C1(C(=O)O)CCC1.[NH2-].[NH2-].[Pt+2]` [Carboplatin] + C=C(F)C(=O)N1CCN(c2nc(OC[C@@H]3CCCN3C)nc3c2CCN(c2cccc4cccc(Cl)c24)C3)C[C@@H]1CC#N [adagrasib], for which the results for the “combination cScore with adagrasib” value in assay [1] and in assay [2] were -1.99 and -6.32, respectively.

Regarding `Nc1cccc2c1CN(C1CCC(=O)NC1=O)C2=O` (centres undefined) [Lenalidomide] + C=C(F)C(=O)N1CCN(c2nc(OC[C@@H]3CCCN3C)nc3c2CCN(c2cccc4cccc(Cl)c24)C3)C[C@@H]1CC#N [adagrasib], the “combination cScore with adagrasib” value is -12.8 in assay [1] and -3.14 in assay [2].

On to `COc1ccc(Cn2ccc3ccc(C(=O)NO)cc32)cc1` + C=C(F)C(=O)N1CCN(c2nc(OC[C@@H]3CCCN3C)nc3c2CCN(c2cccc4cccc(Cl)c24)C3)C[C@@H]1CC#N [adagrasib], for which the “combination cScore with adagrasib” value in assay [1] came to 2.01; in assay [2], 1.45.
